{"source": "paper PMC6704710", "about": "“Preclinical evaluation of 3D185, a novel potent inhibitor of FGFR1/2/3 and CSF-1R, in FGFR-dependent and macrophage-dominant cancer models” (Journal of Experimental & Clinical Cancer Research : CR, 2019)", "experiment_in_all_cases": "Eurofins kinase panel", "format_in_all_cases": "biochemical", "conditions_in_all_cases": "read-out: Inhibition rate (%)", "key": {"NEK1(h)": {"molecular_target": "T1, NEK1(h) (Homo sapiens, UniProt Q96PY6)", "T1 construct": "purchased Eurofins (KinaseProfiler)", "T1 sequence (Q96PY6 1-1258)": "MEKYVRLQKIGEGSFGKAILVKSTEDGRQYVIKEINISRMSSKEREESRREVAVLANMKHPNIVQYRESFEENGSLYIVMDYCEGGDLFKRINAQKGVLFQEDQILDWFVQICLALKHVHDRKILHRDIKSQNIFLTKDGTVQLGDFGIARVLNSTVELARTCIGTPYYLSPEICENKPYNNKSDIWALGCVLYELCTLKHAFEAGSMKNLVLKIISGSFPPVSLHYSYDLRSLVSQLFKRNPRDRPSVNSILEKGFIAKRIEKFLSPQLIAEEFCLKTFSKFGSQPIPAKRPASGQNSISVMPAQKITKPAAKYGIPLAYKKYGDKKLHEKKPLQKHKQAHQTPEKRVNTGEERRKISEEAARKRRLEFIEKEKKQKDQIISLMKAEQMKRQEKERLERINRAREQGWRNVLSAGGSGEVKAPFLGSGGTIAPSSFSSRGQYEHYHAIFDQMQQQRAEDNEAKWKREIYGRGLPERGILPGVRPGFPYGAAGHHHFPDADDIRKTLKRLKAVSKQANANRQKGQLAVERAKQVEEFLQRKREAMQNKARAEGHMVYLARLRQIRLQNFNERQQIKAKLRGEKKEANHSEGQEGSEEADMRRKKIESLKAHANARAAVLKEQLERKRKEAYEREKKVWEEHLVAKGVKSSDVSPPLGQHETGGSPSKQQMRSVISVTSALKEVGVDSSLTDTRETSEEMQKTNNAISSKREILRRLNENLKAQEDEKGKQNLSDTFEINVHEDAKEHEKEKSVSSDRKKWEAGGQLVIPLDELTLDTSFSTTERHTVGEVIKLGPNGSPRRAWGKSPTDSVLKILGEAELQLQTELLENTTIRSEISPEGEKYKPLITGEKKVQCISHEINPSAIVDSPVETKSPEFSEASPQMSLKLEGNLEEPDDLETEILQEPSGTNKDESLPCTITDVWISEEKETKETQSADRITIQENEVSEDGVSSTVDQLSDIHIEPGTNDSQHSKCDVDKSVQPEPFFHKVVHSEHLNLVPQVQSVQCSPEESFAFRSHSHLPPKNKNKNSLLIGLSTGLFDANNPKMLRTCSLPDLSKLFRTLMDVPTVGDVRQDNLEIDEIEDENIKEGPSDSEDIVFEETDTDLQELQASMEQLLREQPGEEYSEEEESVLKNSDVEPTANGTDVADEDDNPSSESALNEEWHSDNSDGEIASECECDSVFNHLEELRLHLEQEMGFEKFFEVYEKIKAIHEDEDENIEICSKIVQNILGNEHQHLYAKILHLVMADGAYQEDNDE"}, "MARK1(h)": {"molecular_target": "T2, MARK1(h) (Homo sapiens, UniProt Q9P0L2)", "T2 construct": "purchased Eurofins (KinaseProfiler)", "T2 sequence (Q9P0L2 whole entry)": "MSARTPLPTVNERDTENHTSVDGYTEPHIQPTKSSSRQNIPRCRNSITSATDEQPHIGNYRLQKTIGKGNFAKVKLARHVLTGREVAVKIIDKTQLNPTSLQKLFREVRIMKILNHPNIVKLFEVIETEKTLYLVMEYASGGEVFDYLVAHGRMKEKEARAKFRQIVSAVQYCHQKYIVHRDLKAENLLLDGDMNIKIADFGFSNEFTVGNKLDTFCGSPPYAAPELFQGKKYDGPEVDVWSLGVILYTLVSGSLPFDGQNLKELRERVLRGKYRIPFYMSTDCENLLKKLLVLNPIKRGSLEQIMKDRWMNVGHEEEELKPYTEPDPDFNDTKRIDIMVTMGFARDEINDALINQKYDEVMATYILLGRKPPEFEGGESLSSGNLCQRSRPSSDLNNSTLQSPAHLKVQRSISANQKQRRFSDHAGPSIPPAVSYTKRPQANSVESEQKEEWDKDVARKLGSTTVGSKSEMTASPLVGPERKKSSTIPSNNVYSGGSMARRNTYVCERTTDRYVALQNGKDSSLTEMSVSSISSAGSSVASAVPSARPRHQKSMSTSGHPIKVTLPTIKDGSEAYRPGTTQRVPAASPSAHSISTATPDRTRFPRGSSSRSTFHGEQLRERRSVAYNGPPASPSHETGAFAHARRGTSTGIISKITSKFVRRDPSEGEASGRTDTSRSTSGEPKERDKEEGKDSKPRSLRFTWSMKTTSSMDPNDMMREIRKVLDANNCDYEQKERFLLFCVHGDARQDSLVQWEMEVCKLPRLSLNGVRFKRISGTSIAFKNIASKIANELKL"}, "Plk1(h)": {"molecular_target": "T3, Plk1(h) (Homo sapiens, UniProt P53350)", "T3 construct": "purchased Eurofins (KinaseProfiler)", "T3 sequence (P53350 whole entry)": "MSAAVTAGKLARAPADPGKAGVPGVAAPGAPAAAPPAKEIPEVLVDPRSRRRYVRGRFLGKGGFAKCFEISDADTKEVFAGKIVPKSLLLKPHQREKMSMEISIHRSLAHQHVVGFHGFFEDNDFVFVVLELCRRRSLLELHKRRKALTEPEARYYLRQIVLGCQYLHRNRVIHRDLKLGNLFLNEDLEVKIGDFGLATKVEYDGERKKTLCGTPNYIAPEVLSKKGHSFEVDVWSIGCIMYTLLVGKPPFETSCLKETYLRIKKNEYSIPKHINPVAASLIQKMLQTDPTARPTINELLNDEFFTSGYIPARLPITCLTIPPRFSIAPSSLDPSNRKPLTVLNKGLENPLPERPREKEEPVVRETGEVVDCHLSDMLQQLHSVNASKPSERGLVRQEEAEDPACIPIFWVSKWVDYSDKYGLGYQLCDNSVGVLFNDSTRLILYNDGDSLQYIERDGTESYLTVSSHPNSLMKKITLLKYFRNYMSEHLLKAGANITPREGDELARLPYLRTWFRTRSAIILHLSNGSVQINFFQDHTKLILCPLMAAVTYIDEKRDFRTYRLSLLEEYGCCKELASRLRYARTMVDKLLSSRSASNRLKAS"}, "TSSK1(h)": {"molecular_target": "T4, TSSK1(h) (Homo sapiens, UniProt Q9BXA7)", "T4 construct": "purchased Eurofins (KinaseProfiler)", "T4 sequence (Q9BXA7 1-367)": "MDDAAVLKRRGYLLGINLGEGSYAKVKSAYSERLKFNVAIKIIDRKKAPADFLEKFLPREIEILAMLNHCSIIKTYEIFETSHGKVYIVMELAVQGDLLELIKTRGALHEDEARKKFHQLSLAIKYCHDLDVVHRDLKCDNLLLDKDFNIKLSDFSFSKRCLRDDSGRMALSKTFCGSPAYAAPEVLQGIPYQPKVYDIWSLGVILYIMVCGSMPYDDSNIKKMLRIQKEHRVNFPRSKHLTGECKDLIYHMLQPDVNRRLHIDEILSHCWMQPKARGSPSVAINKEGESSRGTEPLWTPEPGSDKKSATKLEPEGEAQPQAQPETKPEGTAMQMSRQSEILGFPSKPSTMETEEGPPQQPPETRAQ"}}}
{"smiles": "COc1cc(OC)c(Cl)c(-c2ccc3c(NC(=O)c4ccc(N5CCNC(C)(C)C5)cc4)n[nH]c3n2)c1Cl", "note": "[3D185]", "values": [{"measurement": "inhibition at 0.01 µM", "setting": "NEK1(h); 10 nM", "value": 5, "unit": "%"}, {"measurement": "inhibition at 0.1 µM", "setting": "NEK1(h); 100 nM", "value": 3, "unit": "%"}, {"measurement": "inhibition at 1 µM", "setting": "NEK1(h); 1000 nM", "value": 11, "unit": "%"}, {"measurement": "inhibition at 0.01 µM", "setting": "MARK1(h); 10 nM", "value": -11, "unit": "%"}, {"measurement": "inhibition at 0.1 µM", "setting": "MARK1(h); 100 nM", "value": -13, "unit": "%"}, {"measurement": "inhibition at 1 µM", "setting": "MARK1(h); 1000 nM", "value": -25, "unit": "%"}, {"measurement": "inhibition at 0.01 µM", "setting": "Plk1(h); 10 nM", "value": -6, "unit": "%"}, {"measurement": "inhibition at 0.1 µM", "setting": "Plk1(h); 100 nM", "value": 2, "unit": "%"}, {"measurement": "inhibition at 1 µM", "setting": "Plk1(h); 1000 nM", "value": -4, "unit": "%"}, {"measurement": "inhibition at 0.01 µM", "setting": "TSSK1(h); 10 nM", "value": 5, "unit": "%"}, {"measurement": "inhibition at 0.1 µM", "setting": "TSSK1(h); 100 nM", "value": 2, "unit": "%"}, {"measurement": "inhibition at 1 µM", "setting": "TSSK1(h); 1000 nM", "value": 13, "unit": "%"}]}
